Nine molecules from BindingDB's records for doi:10.1021/acs.jmedchem.5b01008 (Pfizer, 2015) can be followed below.

Where “and” joins values, the source holds several entries; their conditions need not be identical. Equal values may be shown once.

The target in assay [1] is 2-acylglycerol O-acyltransferase 3 (MGAT3, MOGAT3) (Homo sapiens) (UniProt Q86VF5). Description: Inhibition of MGAT3 (unknown origin) assessed effect on incorporation of [1-14C]decanoyl moiety into triacylglycerol using [1-14C]decanoyl-CoA and 1,2-didecanoyl-sn-glycerol as substrates pre-incubated for 30 mins before substrate addition.
Assay [2] has the same target. Description: Inhibition of human MGAT3 expressed in HEK293 cells assessed as effect on incorporation of [1,3-14C] glycerol into TAG by TLC method in presence of DGAT1 inhibitor PF-04620110 and DGAT2 inhibitor PF-06424439.
Assay [3] has as its target 2-acylglycerol O-acyltransferase 1 (MGAT1, MOGAT1) (Homo sapiens) (UniProt Q96PD6). Description: Inhibition of MGAT1 (unknown origin) assessed as effect on incorporation of [1-14C]decanoyl moiety into DAG using [1-14C]decanoyl-CoA and 2-oleoylglycerol as substrates.

2-acylglycerol O-acyltransferase 1 (MGAT1, MOGAT1) (Homo sapiens), sequence (Q96PD6 whole entry, looked up): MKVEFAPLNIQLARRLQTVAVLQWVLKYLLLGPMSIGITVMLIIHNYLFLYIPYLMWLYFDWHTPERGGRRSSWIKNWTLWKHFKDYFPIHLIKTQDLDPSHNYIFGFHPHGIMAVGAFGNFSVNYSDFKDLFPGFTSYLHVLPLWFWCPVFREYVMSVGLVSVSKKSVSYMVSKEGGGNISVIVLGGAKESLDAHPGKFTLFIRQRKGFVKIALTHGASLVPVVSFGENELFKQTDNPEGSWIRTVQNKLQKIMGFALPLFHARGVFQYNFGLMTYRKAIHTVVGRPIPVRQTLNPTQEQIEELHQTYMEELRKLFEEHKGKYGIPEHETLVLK
2-acylglycerol O-acyltransferase 3 (MGAT3, MOGAT3) (Homo sapiens), sequence (Q86VF5 whole entry, looked up): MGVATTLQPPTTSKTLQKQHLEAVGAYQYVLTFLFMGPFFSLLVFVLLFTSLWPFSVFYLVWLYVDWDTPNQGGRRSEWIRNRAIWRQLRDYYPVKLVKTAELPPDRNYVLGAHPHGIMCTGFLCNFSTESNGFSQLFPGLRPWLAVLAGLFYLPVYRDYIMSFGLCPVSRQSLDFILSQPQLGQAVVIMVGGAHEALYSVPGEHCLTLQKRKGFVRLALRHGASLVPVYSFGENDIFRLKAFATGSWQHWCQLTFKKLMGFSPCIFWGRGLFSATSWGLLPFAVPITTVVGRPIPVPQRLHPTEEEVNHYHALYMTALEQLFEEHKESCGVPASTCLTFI

By IC50 is commonly meant the point on the concentration scale where inhibition reaches its midpoint. In the case of `COc1cccc(CC(=O)N2Cc3ccc(S(=O)(=O)Nc4cnn(C(C)C)n4)cc3C2)c1`, the IC50 in assay [1] is 597 nM and 631 nM. Take `COc1cccc(CC(=O)N2Cc3ccc(S(=O)(=O)N(C)CCc4cccc(F)c4)cc3C2)c1`: the IC50 in assay [1] was 2740 nM and 2510 nM.

With `COc1cccc(CC(=O)N2Cc3ccc(S(=O)(=O)Nc4cnn(C5CC(F)(F)C5)n4)cc3C2)c1`, the IC50 in assay [2] was 394 nM and 389 nM.

Take `COc1cccc(CC(=O)N2Cc3ccc(S(=O)(=O)Nc4cnn(C5COC5)n4)cc3C2)c1`: the IC50 in assay [1] is 365 nM and 398 nM.

In the case of `COc1cccc(CC(=O)N2Cc3ccc(S(=O)(=O)Nc4cnn(C)n4)cc3C2)c1`, the IC50 in assay [1] is 3840 nM and 3980 nM. As for `COc1cccc(CC(=O)N2Cc3ccc(S(=O)(=O)NCCc4cccc(F)c4)cc3C2)c1`, the IC50 in assay [3] is greater than 40000 nM; in assay [1], 682 nM and 631 nM. In the case of `COc1cccc(CC(=O)N2Cc3ccc(S(=O)(=O)Nc4cnn(C5CCC5)n4)cc3C2)c1`, the IC50 in assay [3] is 14900 nM and 14800 nM; in assay [2] it was 205 nM and 204 nM; in assay [1], 92 nM and 100 nM.

In turn, `COc1cccc(CC(=O)N2Cc3ccc(S(=O)(=O)Nc4cnn(-c5ccc(F)cc5)n4)cc3C2)c1` yielded a half-maximal inhibitory concentration (IC50) in assay [1] of 6 nM. As for `COc1cccc(CC(=O)N2Cc3ccc(S(=O)(=O)Nc4cnn(-c5ccccc5)n4)cc3C2)c1`, the concentration for half-maximal inhibition (IC50) in assay [1] came out at 6 nM.
